Assays:
[1] = biological target: T1, LRRK2 (Rattus norvegicus, UniProt F1LNJ1); experiment: PET imaging in rats with arterial blood sampling (2TCM, VT); assay type: in vivo; conditions: compound 3 (1 mg/kg) i.v. prior to tracer injection
T1 construct: from tissue; host or cells: rat brain (Sprague-Dawley rats)
Description: (§1) The promising pharmacological, pharmacokinetic, and in vitro autoradiographic data encouraged us to carry out preliminary dynamic PET imaging studies of [^11C]3 and [^18F]4. […] Given the superiority of fluorine-18 such as clean positron emission, low positron range, and relatively long half-life compared with carbon-11, [^18F]4 was subjected to further investigation (Figure 6). A blocking scan was carried out with intravenous administration of compound 3 (1 mg/kg) prior to tracer injection. For both baseline and blocking studies, blood samples were extracted from the artery. Both whole-blood and plasma radioactivity concentrations were evaluated, and radiometabolites were measured in plasma samples by radio high-performance liquid chromatography (HPLC) to generate metabolite-corrected input function (Figure S2). Compartmental analyses with one- and two-tissue compartment models (1TCM and 2TCM) were carried out on regional time–activity curves. […] In the baseline study, VT of various brain regions ranged from 2.2 to 2.9 mL/cm^3, confirming the high binding of the radiotracer.
The general procedure for PET studies was described previously[35],[41] with minor modification in this work. […] The radioactivity was decay-corrected and expressed as the standard uptake value: SUV = (radioactivity per mL tissue/injected radioactivity) × body weight.

[2] = tested on: LRRK2-G2019S; experiment: PET imaging in LRRK2-G2019S mutant versus wild-type mice; assay type: in vivo, mouse; conditions: brain, G2019S mice versus WT mice, p ≤ 0.001
Description: (§2) The general procedure for PET studies was described previously[35],[41] with minor modification in this work. Briefly, PET scans were carried out by a Genisys 4 PET scanner (Sofie Biosciences, Culver, CA). Mice were kept under anesthesia using 1–2% (v/v) isoflurane during the scan. The radiotracer (ca. 45 μCi/100 μL) was injected into the tail vein via a preinstalled catheter. A dynamic scan in 3D list mode was acquired for 60 min. The PET dynamic images were reconstructed using G4 software (Analysis Tools and System Setup/Diagnostics Tool, Sofie Biosciences). The radioactivity was decay-corrected and expressed as the standardized uptake value: SUV = (radioactivity per mL tissue/injected radioactivity) × body weight.

[3] = biological target: T2, LRRK2 (Mus musculus, UniProt Q5S006); experiment: PET imaging in LPS-injected neuroinflammatory mouse model; assay type: in vivo; conditions: brain, LPS-injected mice versus sham group (PBS)
T2 construct: from tissue; host or cells: brain of living CD-1 mice, i.c.v; LPS or saline
Description: The CD-1 mice were anesthetized and secured in a stereotaxic frame. The skull was exposed and stereotaxic coordinates (−2.6 mm dorsal/ventral, −1.5 mm lateral, and −0.2 mm anterior/posterior from bregma) according to the procedure by Haley and McCormick.[43] The i.c.v. injections of 10 μg (in 2 μL of saline) of LPS and saline (control group) injections were administered using a microsyringe. The behavior of each mouse was characterized and recorded in the form of scores, including appearance, activity, level of consciousness, eyes, respiration rate, and respiration quality. Scores were determined by summing up the individual scores (Figure S10).
as §2

[4] = Radiometabolite analysis in rat plasma (radio-HPLC); assay type: in vivo; conditions: rats
Description: as §1

[5] = Ex vivo whole-body biodistribution in mice; design: species or system CD-1 mice; conditions: for Ex vivo biodistribution: mean ± SD, n = 4
Description: The general procedure for ex vivo biodistribution studies was described previously[35],[41] with minor modification in this work. Briefly, a solution of [^18F]4 (50 μCi/100 μL) was injected into CD-1 mice via tail vein. These mice (each time point n = 4) were sacrificed at 5, 15, 30, and 60 min post tracer injection. Major organs, including whole brain, heart, liver, lung, spleen, kidneys, small intestine (including contents), muscle, and blood samples, were quickly harvested and weighted. The radioactivity present in these tissues was measured using a Cobra Model 5002/5003 γ counter, and all radioactivity measurements were automatically decay-corrected based on the half-life of fluorine-18. The results are expressed as the percentage of injected dose per gram of wet tissue (%ID/g).

T2 sequence (Q5S006 whole entry): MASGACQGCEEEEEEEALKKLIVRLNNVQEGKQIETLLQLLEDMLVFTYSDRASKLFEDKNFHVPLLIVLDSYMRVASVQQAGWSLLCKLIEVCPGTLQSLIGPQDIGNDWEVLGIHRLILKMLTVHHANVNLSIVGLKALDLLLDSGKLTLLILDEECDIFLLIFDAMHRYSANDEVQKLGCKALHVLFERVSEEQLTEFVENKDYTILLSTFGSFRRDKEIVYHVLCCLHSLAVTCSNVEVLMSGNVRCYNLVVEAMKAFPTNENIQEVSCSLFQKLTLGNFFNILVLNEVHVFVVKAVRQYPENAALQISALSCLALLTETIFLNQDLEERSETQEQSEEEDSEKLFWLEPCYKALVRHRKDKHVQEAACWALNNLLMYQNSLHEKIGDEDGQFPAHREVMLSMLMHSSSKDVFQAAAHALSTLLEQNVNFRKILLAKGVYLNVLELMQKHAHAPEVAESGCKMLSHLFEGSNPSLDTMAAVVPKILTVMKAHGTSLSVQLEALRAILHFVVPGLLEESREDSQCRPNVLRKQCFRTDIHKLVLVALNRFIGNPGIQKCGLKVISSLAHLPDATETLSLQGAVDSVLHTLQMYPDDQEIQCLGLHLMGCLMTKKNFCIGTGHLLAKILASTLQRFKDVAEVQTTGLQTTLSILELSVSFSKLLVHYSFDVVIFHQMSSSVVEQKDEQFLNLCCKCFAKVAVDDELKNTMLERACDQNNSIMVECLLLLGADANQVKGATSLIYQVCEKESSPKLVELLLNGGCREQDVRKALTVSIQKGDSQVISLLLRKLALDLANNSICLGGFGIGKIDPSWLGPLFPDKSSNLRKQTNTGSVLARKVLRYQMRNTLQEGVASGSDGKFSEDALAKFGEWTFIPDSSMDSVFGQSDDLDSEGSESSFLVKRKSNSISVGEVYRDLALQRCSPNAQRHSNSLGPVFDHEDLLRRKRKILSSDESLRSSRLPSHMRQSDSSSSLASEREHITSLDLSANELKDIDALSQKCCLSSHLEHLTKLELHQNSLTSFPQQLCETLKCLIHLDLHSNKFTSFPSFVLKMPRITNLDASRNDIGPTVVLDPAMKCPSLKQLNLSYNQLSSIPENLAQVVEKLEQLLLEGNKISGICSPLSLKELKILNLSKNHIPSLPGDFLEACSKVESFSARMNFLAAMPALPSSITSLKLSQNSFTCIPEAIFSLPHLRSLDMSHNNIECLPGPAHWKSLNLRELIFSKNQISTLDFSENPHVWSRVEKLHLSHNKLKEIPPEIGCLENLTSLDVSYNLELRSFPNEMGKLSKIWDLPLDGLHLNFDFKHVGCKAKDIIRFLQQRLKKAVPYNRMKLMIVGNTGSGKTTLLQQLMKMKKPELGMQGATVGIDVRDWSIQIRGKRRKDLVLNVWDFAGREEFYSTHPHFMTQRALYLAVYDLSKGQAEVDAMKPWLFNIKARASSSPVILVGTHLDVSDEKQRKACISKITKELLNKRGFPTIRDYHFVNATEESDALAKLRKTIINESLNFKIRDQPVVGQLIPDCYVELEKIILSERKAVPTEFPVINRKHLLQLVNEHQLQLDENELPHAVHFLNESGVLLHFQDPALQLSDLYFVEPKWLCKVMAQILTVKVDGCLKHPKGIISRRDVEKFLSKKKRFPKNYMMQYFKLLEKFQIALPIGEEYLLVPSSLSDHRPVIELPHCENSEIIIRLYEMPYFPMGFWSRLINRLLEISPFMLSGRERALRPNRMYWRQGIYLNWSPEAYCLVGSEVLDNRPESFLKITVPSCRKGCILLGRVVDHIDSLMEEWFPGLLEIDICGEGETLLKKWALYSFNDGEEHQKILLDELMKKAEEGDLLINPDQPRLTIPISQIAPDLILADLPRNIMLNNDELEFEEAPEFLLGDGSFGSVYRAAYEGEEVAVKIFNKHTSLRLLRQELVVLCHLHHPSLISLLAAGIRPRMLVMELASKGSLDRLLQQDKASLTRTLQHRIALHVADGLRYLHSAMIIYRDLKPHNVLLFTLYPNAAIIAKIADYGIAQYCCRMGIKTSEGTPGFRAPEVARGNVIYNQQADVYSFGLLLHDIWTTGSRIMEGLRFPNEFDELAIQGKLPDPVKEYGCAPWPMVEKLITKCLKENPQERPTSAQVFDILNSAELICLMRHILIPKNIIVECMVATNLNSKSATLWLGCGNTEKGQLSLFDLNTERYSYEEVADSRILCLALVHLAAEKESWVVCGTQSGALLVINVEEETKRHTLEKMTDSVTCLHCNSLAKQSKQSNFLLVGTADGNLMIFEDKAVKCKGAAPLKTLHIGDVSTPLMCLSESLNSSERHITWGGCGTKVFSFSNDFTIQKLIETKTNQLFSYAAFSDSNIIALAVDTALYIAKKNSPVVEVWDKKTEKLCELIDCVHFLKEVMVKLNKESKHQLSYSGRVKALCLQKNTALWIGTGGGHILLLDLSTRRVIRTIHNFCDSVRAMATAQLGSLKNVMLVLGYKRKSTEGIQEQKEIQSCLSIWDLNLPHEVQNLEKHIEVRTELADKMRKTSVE
T1 sequence (F1LNJ1 1-2526): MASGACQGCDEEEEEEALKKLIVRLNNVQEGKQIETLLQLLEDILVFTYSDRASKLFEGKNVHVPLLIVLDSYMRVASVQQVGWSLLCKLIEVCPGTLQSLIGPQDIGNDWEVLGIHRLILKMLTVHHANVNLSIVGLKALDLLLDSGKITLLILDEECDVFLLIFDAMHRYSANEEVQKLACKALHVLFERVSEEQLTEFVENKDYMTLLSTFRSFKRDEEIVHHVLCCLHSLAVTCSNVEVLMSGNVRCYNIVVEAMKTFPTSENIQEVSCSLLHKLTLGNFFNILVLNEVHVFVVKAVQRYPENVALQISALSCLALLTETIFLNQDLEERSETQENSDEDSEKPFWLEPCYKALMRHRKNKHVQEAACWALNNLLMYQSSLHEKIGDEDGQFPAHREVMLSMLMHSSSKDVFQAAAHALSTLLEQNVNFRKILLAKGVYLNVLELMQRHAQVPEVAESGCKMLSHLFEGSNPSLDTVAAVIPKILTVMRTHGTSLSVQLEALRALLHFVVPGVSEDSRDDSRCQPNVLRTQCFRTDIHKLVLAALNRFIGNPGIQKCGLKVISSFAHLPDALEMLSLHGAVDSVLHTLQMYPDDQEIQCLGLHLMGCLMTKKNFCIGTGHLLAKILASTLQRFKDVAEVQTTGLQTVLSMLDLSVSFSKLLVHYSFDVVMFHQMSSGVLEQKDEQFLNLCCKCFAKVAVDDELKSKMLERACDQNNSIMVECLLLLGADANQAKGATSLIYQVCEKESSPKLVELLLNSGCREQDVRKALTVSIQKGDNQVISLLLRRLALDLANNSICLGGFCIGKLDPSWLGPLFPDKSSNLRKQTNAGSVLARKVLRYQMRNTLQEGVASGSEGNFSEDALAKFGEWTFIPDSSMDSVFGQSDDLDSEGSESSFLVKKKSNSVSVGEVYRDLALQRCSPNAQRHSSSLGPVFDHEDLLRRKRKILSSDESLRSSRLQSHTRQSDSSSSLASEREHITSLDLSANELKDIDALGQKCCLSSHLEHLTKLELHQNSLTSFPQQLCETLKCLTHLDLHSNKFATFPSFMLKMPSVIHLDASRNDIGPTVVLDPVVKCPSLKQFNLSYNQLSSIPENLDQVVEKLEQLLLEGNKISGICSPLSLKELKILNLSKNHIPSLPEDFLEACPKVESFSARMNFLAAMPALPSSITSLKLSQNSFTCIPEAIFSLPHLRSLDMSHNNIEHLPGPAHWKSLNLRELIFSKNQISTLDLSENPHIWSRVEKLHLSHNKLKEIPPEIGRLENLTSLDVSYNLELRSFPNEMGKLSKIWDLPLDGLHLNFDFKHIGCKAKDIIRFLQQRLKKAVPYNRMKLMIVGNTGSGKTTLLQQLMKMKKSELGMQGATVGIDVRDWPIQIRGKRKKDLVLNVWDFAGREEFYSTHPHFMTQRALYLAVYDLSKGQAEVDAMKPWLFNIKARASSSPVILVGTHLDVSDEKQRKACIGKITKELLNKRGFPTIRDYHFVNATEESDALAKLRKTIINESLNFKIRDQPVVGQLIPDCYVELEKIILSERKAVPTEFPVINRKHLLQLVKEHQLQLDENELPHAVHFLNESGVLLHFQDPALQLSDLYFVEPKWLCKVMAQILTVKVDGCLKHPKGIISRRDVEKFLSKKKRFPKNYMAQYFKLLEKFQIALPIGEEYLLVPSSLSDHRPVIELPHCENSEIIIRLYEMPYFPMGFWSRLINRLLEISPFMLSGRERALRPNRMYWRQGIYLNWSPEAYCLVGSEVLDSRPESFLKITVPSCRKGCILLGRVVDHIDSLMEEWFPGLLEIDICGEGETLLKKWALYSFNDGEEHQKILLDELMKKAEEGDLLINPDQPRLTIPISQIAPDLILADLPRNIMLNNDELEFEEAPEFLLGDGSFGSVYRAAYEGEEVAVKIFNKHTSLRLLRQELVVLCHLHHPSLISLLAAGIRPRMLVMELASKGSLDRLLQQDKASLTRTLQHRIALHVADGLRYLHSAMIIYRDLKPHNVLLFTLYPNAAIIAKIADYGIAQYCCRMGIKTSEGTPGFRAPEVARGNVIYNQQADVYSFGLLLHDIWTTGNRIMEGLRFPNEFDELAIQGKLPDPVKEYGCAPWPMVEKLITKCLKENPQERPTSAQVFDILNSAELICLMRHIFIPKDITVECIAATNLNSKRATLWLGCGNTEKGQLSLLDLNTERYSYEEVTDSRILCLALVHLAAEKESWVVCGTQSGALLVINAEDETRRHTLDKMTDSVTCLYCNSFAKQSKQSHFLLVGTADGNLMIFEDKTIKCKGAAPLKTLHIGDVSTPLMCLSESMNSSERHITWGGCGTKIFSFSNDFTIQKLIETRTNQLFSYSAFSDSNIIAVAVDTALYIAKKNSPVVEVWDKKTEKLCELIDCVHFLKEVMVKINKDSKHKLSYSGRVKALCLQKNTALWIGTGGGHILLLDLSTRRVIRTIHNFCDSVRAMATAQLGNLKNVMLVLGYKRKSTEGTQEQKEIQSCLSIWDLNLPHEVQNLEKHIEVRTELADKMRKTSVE

N#Cc1cccc(-c2c[nH]c3ncnc(N4CCOCC4)c23)c1[18F] [[^18F]4]
uptake in various brain regions after pretreatment of compound 3 [1]: significant decrease of uptake
increase of radioactivity accumulation based on AUC [2]: around 22%
increase of radioactivity based on the AUCs [3]: 28%
parent fraction in plasma ([4]; 30 min post tracer administration): 38%
parent fraction in plasma ([4]; 60 min post tracer administration): 23%
de-radiofluorination in vivo ([5]; biodistribution study, up to 60 min): no remarkable de-radiofluorination
Ex vivo biodistribution ([5]; blood, 5 min): 1.98 ± 0.08 %ID/g
Ex vivo biodistribution ([5]; blood, 15 min): 1.12 ± 0.16 %ID/g
Ex vivo biodistribution ([5]; blood, 30 min): 0.60 ± 0.08 %ID/g
Ex vivo biodistribution ([5]; blood, 60 min): 0.37 ± 0.09 %ID/g
Ex vivo biodistribution ([5]; bone, 5 min): 2.89 ± 2.05 %ID/g
Ex vivo biodistribution ([5]; bone, 15 min): 1.06 ± 0.23 %ID/g
Ex vivo biodistribution ([5]; bone, 30 min): 0.57 ± 0.05 %ID/g
Ex vivo biodistribution ([5]; bone, 60 min): 0.82 ± 0.22 %ID/g
Ex vivo biodistribution ([5]; brain, 5 min): 3.61 ± 0.74 %ID/g
Ex vivo biodistribution ([5]; brain, 15 min): 0.91 ± 0.21 %ID/g
Ex vivo biodistribution ([5]; brain, 30 min): 0.14 ± 0.01 %ID/g
Ex vivo biodistribution ([5]; brain, 60 min): 0.04 ± 0.01 %ID/g
Ex vivo biodistribution ([5]; heart, 5 min): 3.63 ± 0.10 %ID/g
Ex vivo biodistribution ([5]; heart, 15 min): 1.49 ± 0.17 %ID/g
Ex vivo biodistribution ([5]; heart, 30 min): 0.49 ± 0.07 %ID/g
Ex vivo biodistribution ([5]; heart, 60 min): 0.25 ± 0.03 %ID/g
Ex vivo biodistribution ([5]; kidneys, 5 min): 9.96 ± 1.01 %ID/g
Ex vivo biodistribution ([5]; kidneys, 15 min): 6.41 ± 0.76 %ID/g
Ex vivo biodistribution ([5]; kidneys, 30 min): 2.74 ± 0.12 %ID/g
Ex vivo biodistribution ([5]; kidneys, 60 min): 1.32 ± 0.15 %ID/g
Ex vivo biodistribution ([5]; liver, 5 min): 24.68 ± 10.36 %ID/g
Ex vivo biodistribution ([5]; liver, 15 min): 15.53 ± 2.40 %ID/g
Ex vivo biodistribution ([5]; liver, 30 min): 7.34 ± 0.78 %ID/g
Ex vivo biodistribution ([5]; liver, 60 min): 3.97 ± 1.30 %ID/g
Ex vivo biodistribution ([5]; lungs, 5 min): 8.88 ± 2.99 %ID/g
Ex vivo biodistribution ([5]; lungs, 15 min): 5.46 ± 2.28 %ID/g
Ex vivo biodistribution ([5]; lungs, 30 min): 2.86 ± 0.67 %ID/g
Ex vivo biodistribution ([5]; lungs, 60 min): 1.65 ± 0.35 %ID/g
Ex vivo biodistribution ([5]; muscle, 5 min): 2.34 ± 1.06 %ID/g
Ex vivo biodistribution ([5]; muscle, 15 min): 2.04 ± 2.24 %ID/g
Ex vivo biodistribution ([5]; muscle, 30 min): 0.38 ± 0.11 %ID/g
Ex vivo biodistribution ([5]; muscle, 60 min): 0.39 ± 0.40 %ID/g
Ex vivo biodistribution ([5]; pancreas, 5 min): 16.19 ± 1.99 %ID/g
Ex vivo biodistribution ([5]; pancreas, 15 min): 5.75 ± 2.56 %ID/g
Ex vivo biodistribution ([5]; pancreas, 30 min): 1.26 ± 0.25 %ID/g
Ex vivo biodistribution ([5]; pancreas, 60 min): 0.76 ± 0.55 %ID/g
Ex vivo biodistribution ([5]; small intestine, 5 min): 58.87 ± 18.10 %ID/g
Ex vivo biodistribution ([5]; small intestine, 15 min): 58.62 ± 13.63 %ID/g
Ex vivo biodistribution ([5]; small intestine, 30 min): 20.55 ± 17.97 %ID/g
Ex vivo biodistribution ([5]; small intestine, 60 min): 26.44 ± 36.34 %ID/g
Ex vivo biodistribution ([5]; spleen, 5 min): 4.38 ± 0.99 %ID/g
Ex vivo biodistribution ([5]; spleen, 15 min): 2.12 ± 1.24 %ID/g
Ex vivo biodistribution ([5]; spleen, 30 min): 0.52 ± 0.07 %ID/g
Ex vivo biodistribution ([5]; spleen, 60 min): 0.39 ± 0.29 %ID/g
initial radioactive signals in peripheral organs ([5]; spleen, heart, lungs, pancreas, stomach, small intestine, kidneys, liver): > 4 %ID/g
Ex vivo biodistribution ([5]; stomach, 5 min): 5.72 ± 2.69 %ID/g
Ex vivo biodistribution ([5]; stomach, 15 min): 5.69 ± 1.06 %ID/g
Ex vivo biodistribution ([5]; stomach, 30 min): 7.88 ± 5.2 %ID/g
Ex vivo biodistribution ([5]; stomach, 60 min): 2.41 ± 1.31 %ID/g
